# Experimental data taken from ChEMBL document CHEMBL1158724, “Ipomoeassins A-E, cytotoxic macrocyclic glycoresins from the leaves of Ipomoea squamosa from the Suriname rainforest” (J Nat Prod, 2005).
# Test system: A2780
# Assay: Cytotoxicity against human A2780 cells
# Format: functional, cell-based
row,SMILES,IC50 [nM]
1,C/C=C(\C)C(=O)O[C@@H]1[C@@H](OC(C)=O)[C@@H]2O[C@H]3[C@H](O[C@@H](CCC)CCCCCCC(=O)CCC(=O)OC[C@@H](O2)[C@H]1OC(=O)/C=C/c1ccccc1)O[C@H](C)[C@H](OC(C)=O)[C@@H]3OC(C)=O,15800
2,C/C=C(\C)C(=O)O[C@@H]1[C@@H](O)[C@@H]2O[C@H]3[C@H](O[C@@H](CCC)CCCCC[C@H](O)C(=O)CCC(=O)OC[C@@H](O2)[C@H]1OC(=O)/C=C/c1ccccc1)O[C@H](C)[C@H](OC(C)=O)[C@@H]3O [IPOMOEASSIN C],2900
3,C/C=C(\C)C(=O)O[C@@H]1[C@@H](OC(C)=O)[C@@H]2O[C@H]3[C@H](O[C@@H](CCC)CCCCC[C@H](OC(C)=O)C(=O)CCC(=O)OC[C@@H](O2)[C@H]1OC(=O)/C=C/c1ccccc1)O[C@H](C)[C@H](OC(C)=O)[C@@H]3OC(C)=O,19100
4,C/C=C(\C)C(=O)O[C@@H]1[C@@H](O)[C@@H]2O[C@H]3[C@H](O[C@@H](CCC)CCCCC[C@H](OC(C)=O)C(=O)CCC(=O)OC[C@@H](O2)[C@H]1OC(=O)/C=C/c1ccccc1)O[C@H](C)[C@H](OC(C)=O)[C@@H]3O [IPOMOEASSIN D],35
5,C/C=C(\C)C(=O)O[C@@H]1[C@@H](O)[C@@H]2O[C@H]3[C@H](O[C@@H](CCC)CCCCCCC(=O)CCC(=O)OC[C@@H](O2)[C@H]1OC(=O)/C=C/c1ccccc1)O[C@H](C)[C@H](OC(C)=O)[C@@H]3O [IPOMOEASSIN A],500
6,C/C=C(\C)C(=O)O[C@@H]1[C@@H](O)[C@@H]2O[C@H]3[C@H](O[C@@H](CCC)CCCCC[C@H](OC(C)=O)C(=O)CCC(=O)OC[C@@H](O2)[C@H]1OC(=O)/C=C/c1ccccc1)O[C@H](C)[C@H](O)[C@@H]3O [IPOMOEASSIN E],3300
7,C/C=C(\C)C(=O)O[C@@H]1[C@@H](O)[C@@H]2O[C@H]3[C@H](O[C@@H](CCC)CCCCCCC(=O)CCC(=O)OC[C@@H](O2)[C@H]1OC(=O)/C=C/c1ccccc1)O[C@H](C)[C@H](O)[C@@H]3O [IPOMOEASSIN B],400
